Laboratory results: patent US20230416238A1, “N-[(1,3-BENZOXAZOL-2-YL)-HETEROCYCLE]AMIDE DERIVATIVES FOR THE TREATMENT AND PROPHYLAXIS OF HEPATITIS B VIRUS INFECTION” (Hoffmann-La Roche Inc., priority 2020, published 2023)

Tests used:
Format in all cases: cell-based
[1] = tested on: HBsAg; experiment: PHH HBV natural infection assay, HBsAg (alphalisa); details: Hepatitis B virus, Hepatocyte, read-out: HBsAg IC50
Protocol: (§1) Detailed procedures regarding primary human hepatocyte (PHH) HBV natural infection assay are described as below. One tube of frozen PHH (10 million cells) is thawed in 37° C. water bath and then transferred to 20 mL of PHH thawing medium (Sigma, InVitroGRO HT Medium, Cat. S03319) with gently mixing. The cells were then centrifuged at […] for 5 min, the supernatant was discarded and the tube was refilled with 25 mL of PHH plating medium (Sigma, InVitroGRO CP Medium, Cat. S03317). The tube was shaken very gently to re-suspend all cells, and then 50 μL of cells were transferred to each well 384-well collagen I coated plate with appropriate liquid handling equipment, e.g. Integra VIAFLO384 or Agilent Bravo. The cells were then cultured for 24 hours in a cell incubator. For HBV infection, after PHH attachment on the culture plate, the plating medium was removed and replenished with PHH culture medium containing HBV virus. The PHH culture medium was prepared with Dulbecco's Modified Eagle Medium (DMEM)/F12 (1:1 in volume ratio) containing 10% fetal bovine serum (Gibco, Cat. 10099141), 5 ng/mL human epidermal growth factor (Gibco, Cat. PHG0311L), 20 ng/mL dexamethasone (Sigma, Cat. D4902-100 mg), 250 ng/mL human recombinant insulin (Gibco, Cat. 41400045) and 100 U/mL penicillin. HBV virus at 200 genome equivalent (GE) per cell with 4% PEG8000 (Sigma, Cat. P1458) containing culture medium were added to the PHH culture medium for infection. The cells were then cultured for 24 hours in cell incubator. Then the cell culture supernatant was removed. The HBV-infected PHH were cultured with sandwich culture method with MEI culture medium containing 1% DMSO and 0.25 mg/mL matrix gel for 72 hours. The supernatant was then refreshed with PHH culture medium containing different concentrations of testing compounds for two times with 72-hour interval. At the end of treatment, the supernatant was collected for viral markers measurements, including HBsAg, HBeAg, HBV DNA and cytotoxicity. HBsAg and HBeAg were detected using alphalisa method using their specific antibodies. For HBV DNA detection, HBV DNA Quantitative Fluorescence Diagnostic Kit (Sansure Biotech Inc.) was used following the manufacture's protocol. Cytotoxicity was determined using Cell Counting Kit-8 (CCK8, Dojindo Molecular Technologies, Inc.).
(§2) The compounds of the present invention were tested for their capacity to inhibit HBsAg and HBeAg as described herein.

[2] = Cytotoxicity in PHH natural infection assay (Cell Counting Kit-8); details: HBV-infected primary human hepatocytes, CCK8
Protocol: as §1

[3] = tested on: HBeAg; experiment: PHH HBV natural infection assay, HBeAg (alphalisa); details: Hepatitis B virus, Hepatocyte, read-out: HBeAg IC50
Protocol: as §1, §2

## NC(=O)c1ccc(C(=O)NCC2CCN(c3nc4cc(Cl)ccc4o3)CC2)o1 [Example 1, N2-[[1-(5-Chloro-1,3-benzoxazol-2-yl)-4-piperidyl]methyl]furan-2,5-dicarboxamide]
[1]
  IC50: 9.4 µM
[2]
  CC50 at 144 h: > 10 µM
[3]
  IC50: 7.13 µM

## O=C(NCC1CCN(c2nc3cc(Cl)ccc3o2)CC1)c1ccc(C(F)(F)F)nc1 [Example 2, N-[[1-(5-chloro-1,3-benzoxazol-2-yl)-4-piperidyl]methyl]-6-(trifluoromethyl)pyridine-3-carboxamide]
[1]
  IC50: 8.1 µM
[2]
  CC50 at 144 h: > 10 µM
[3]
  IC50: 6.31 µM

## O=C(NCC1CCN(c2nc3cc(Cl)ccc3o2)CC1)c1ccnc(S(=O)(=O)C2CC2)c1 [Example 3, N-[[1-(5-chloro-1,3-benzoxazol-2-yl)-4-piperidyl]methyl]-2-cyclopropylsulfonyl-pyridine-4-carboxamide]
[1]
  IC50: 7.84 µM
[2]
  CC50 at 144 h: > 10 µM
[3]
  IC50: 6.38 µM

## CS(=O)(=O)c1cccc(C(=O)NCC2CCN(c3nc4cc(Cl)ccc4o3)CC2)c1 [Example 4, N-[[1-(5-chloro-1,3-benzoxazol-2-yl)-4-piperidyl]methyl]-3-methylsulfonyl-benzamide]
[1]
  IC50: 6.28 µM
[2]
  CC50 at 144 h: > 10 µM
[3]
  IC50: 5.74 µM

## CS(=O)(=O)c1cc(C(=O)NCC2CCN(c3nc4cc(Cl)ccc4o3)CC2)ccn1 [Example 5, N-[[1-(5-chloro-1,3-benzoxazol-2-yl)-4-piperidyl]methyl]-2-methylsulfonyl-pyridine-4-carboxamide]
[1]
  IC50: 4.68 µM
[2]
  CC50 at 144 h: > 10 µM
[3]
  IC50: 4.93 µM

## NC(=O)c1cc(C(=O)NCC2CCN(c3nc4cc(Cl)ccc4o3)CC2)ccn1 [Example 6, N4-[[1-(5-chloro-1,3-benzoxazol-2-yl)-4-piperidyl]methyl]pyridine-2,4-dicarboxamide]
[1]
  IC50: 4.36 µM
[2]
  CC50 at 144 h: > 10 µM
[3]
  IC50: 4.43 µM

## O=C(NCC1CCN(c2nc3cc(Cl)ccc3o2)CC1)c1ccc(C(F)(F)F)o1 [Example 7, N-[[1-(5-chloro-1,3-benzoxazol-2-yl)-4-piperidyl]methyl]-5-(trifluoromethyl)furan-2-carboxamide]
[1]
  IC50: 3.83 µM
[2]
  CC50 at 144 h: 96.7 µM
[3]
  IC50: 3.45 µM

## NS(=O)(=O)c1ccc(C(=O)NCC2CCN(c3nc4cc(Cl)ccc4o3)CC2)o1 [Example 8, N-[[1-(5-chloro-1,3-benzoxazol-2-yl)-4-piperidyl]methyl]-5-sulfamoyl-furan-2-carboxamide]
[1]
  IC50: 3.14 µM
[2]
  CC50 at 144 h: > 10 µM
[3]
  IC50: 2.85 µM

## CS(=O)(=O)c1cncc(C(=O)NCC2CCN(c3nc4cc(Cl)ccc4o3)CC2)c1 [Example 9, N-[[1-(5-chloro-1,3-benzoxazol-2-yl)-4-piperidyl]methyl]-5-methylsulfonyl-pyridine-3-carboxamide]
[1]
  IC50: 1.5 µM
[2]
  CC50 at 144 h: > 10 µM
[3]
  IC50: 1.83 µM

## O=C(NCC1CCN(c2nc3cc(Cl)ccc3o2)CC1)C1CS(=O)(=O)C1 [Example 10, N-[[1-(5-chloro-1,3-benzoxazol-2-yl)-4-piperidyl]methyl]-1,1-dioxo-thietane-3-carboxamide]
[1]
  IC50: 9.67 µM
[2]
  CC50 at 144 h: > 100 µM
[3]
  IC50: 10.4 µM

## O=C(NCC1CCN(c2nc3cc(Cl)ccc3o2)C1)c1ccnc(S(=O)(=O)C2CC2)c1 (stereo not drawn) [Example 11, N-[[1-(5-chloro-1,3-benzoxazol-2-yl)pyrrolidin-3-yl]methyl]-2-cyclopropylsulfonyl-pyridine-4-carboxamide]
[1]
  IC50: 9.14 µM
[2]
  CC50 at 144 h: > 10 µM
[3]
  IC50: 7.85 µM

## O=C(NC1CCN(c2nc3cc(Cl)ccc3o2)CC1)c1ccc(C(F)(F)F)o1 [Example 12, N-[1-(5-chloro-1,3-benzoxazol-2-yl)-4-piperidyl]-5-(trifluoromethyl)furan-2-carboxamide]
[1]
  IC50: 4.59 µM
[2]
  CC50 at 144 h: > 100 µM
[3]
  IC50: 5.44 µM

## CS(=O)(=O)N1CCC(C(=O)NCC2CCN(c3nc4cc(Cl)ccc4o3)CC2)C1 (stereo not drawn) [Example 13, N-[[1-(5-chloro-1,3-benzoxazol-2-yl)-4-piperidyl]methyl]-1-methylsulfonyl-pyrrolidine-3-carboxamide]
[1]
  IC50: 9.37 µM
[2]
  CC50 at 144 h: > 10 µM
[3]
  IC50: 8.5 µM

## Cc1ccc(S(=O)(=O)N2CCC(C(=O)NCC3CCN(c4nc5cc(Cl)ccc5o4)CC3)C2)cc1 (stereo not drawn) [Example 14, N-[[1-(5-chloro-1,3-benzoxazol-2-yl)-4-piperidyl]methyl]-1-(p-tolylsulfonyl)pyrrolidine-3-carboxamide]
[1]
  IC50: 3.82 µM
[2]
  CC50 at 144 h: > 10 µM
[3]
  IC50: 4.16 µM

## CS(=O)(=O)N1CCC(C(=O)NCC2CCN(c3nc4cc(Cl)ccc4o3)CC2)CC1 [Example 15, N-[[1-(5-chloro-1,3-benzoxazol-2-yl)-4-piperidyl]methyl]-1-methylsulfonyl-piperidine-4-carboxamide]
[1]
  IC50: 3.97 µM
[2]
  CC50 at 144 h: > 10 µM
[3]
  IC50: 3.64 µM

## Cc1ccc(S(=O)(=O)N2CCC(C(=O)NCC3CCN(c4nc5cc(Cl)ccc5o4)CC3)CC2)cc1 [Example 16, N-[[1-(5-chloro-1,3-benzoxazol-2-yl)-4-piperidyl]methyl]-1-(p-tolylsulfonyl)piperidine-4-carboxamide]
[1]
  IC50: 3.74 µM
[2]
  CC50 at 144 h: > 10 µM
[3]
  IC50: 3.67 µM

## CS(=O)(=O)N1CC(CC(=O)NCC2CCN(c3nc4cc(Cl)ccc4o3)CC2)C1 [Example 17, N-[[1-(5-chloro-1,3-benzoxazol-2-yl)-4-piperidyl]methyl]-2-(1-methylsulfonylazetidin-3-yl)acetamide]
[1]
  IC50: 8.23 µM
[2]
  CC50 at 144 h: > 10 µM
[3]
  IC50: > 10 µM

## Cc1ccc(S(=O)(=O)N2CCC(CC(=O)NCC3CCN(c4nc5cc(Cl)ccc5o4)CC3)C2)cc1 (stereo not drawn) [Example 18, N-[[1-(5-chloro-1,3-benzoxazol-2-yl)-4-piperidyl]methyl]-2-[1-(p-tolylsulfonyl)pyrrolidin-3-yl]acetamide]
[1]
  IC50: 3.9 µM
[2]
  CC50 at 144 h: > 10 µM
[3]
  IC50: 3.78 µM

## CS(=O)(=O)N1CCC(CC(=O)NCC2CCN(c3nc4cc(Cl)ccc4o3)CC2)CC1 [Example 19, N-[[1-(5-chloro-1,3-benzoxazol-2-yl)-4-piperidyl]methyl]-2-(1-methylsulfonyl-4-piperidyl)acetamide]
[1]
  IC50: 7.74 µM
[2]
  CC50 at 144 h: > 10 µM
[3]
  IC50: 3.75 µM

## Cc1ccc(S(=O)(=O)N2CCC(CC(=O)NCC3CCN(c4nc5cc(Cl)ccc5o4)CC3)CC2)cc1 [Example 20, N-[[1-(5-chloro-1,3-benzoxazol-2-yl)-4-piperidyl]methyl]-2-[1-(p-tolylsulfonyl)-4-piperidyl]acetamide]
[1]
  IC50: 3.88 µM
[2]
  CC50 at 144 h: > 10 µM
[3]
  IC50: 4.05 µM

## CCOC(=O)NC1CC2(C1)CN(c1nc3cc(Cl)ccc3o1)C2 [Example 21, Ethyl N-[2-(5-chloro-1,3-benzoxazol-2-yl)-2-azaspiro[3.3]heptan-6-yl]carbamate]
[1]
  IC50: 7.15 µM
[2]
  CC50 at 144 h: > 100 µM
[3]
  IC50: 5.24 µM

## CC(C)COC(=O)NC1CC2(C1)CN(c1nc3cc(Cl)ccc3o1)C2 [Example 22, Isobutyl N-[2-(5-chloro-1,3-benzoxazol-2-yl)-2-azaspiro[3.3]heptan-6-yl]carbamate]
[1]
  IC50: 5.87 µM
[2]
  CC50 at 144 h: 82.7 µM
[3]
  IC50: 4.82 µM

## CN(C)C(=O)NC1CC2(C1)CN(c1nc3cc(Cl)ccc3o1)C2 [Example 23, 3-[2-(5-Chloro-1,3-benzoxazol-2-yl)-2-azaspiro[3.3]heptan-6-yl]-1,1-dimethyl-urea]
[1]
  IC50: 7.63 µM
[2]
  CC50 at 144 h: > 100 µM
[3]
  IC50: 6.62 µM

## CCNC(=O)NC1CC2(C1)CN(c1nc3cc(Cl)ccc3o1)C2 [Example 24, 1-[2-(5-Chloro-1,3-benzoxazol-2-yl)-2-azaspiro[3.3]heptan-6-yl]-3-ethyl-urea]
[1]
  IC50: 7.29 µM
[2]
  CC50 at 144 h: > 100 µM
[3]
  IC50: 8.31 µM

## O=C(CCC(F)(F)F)NC1CC2(C1)CN(c1nc3cc(Cl)ccc3o1)C2 [Example 25, N-[2-(5-chloro-1,3-benzoxazol-2-yl)-2-azaspiro[3.3]heptan-6-yl]-4,4,4-trifluoro-butanamide]
[1]
  IC50: 9.8 µM
[2]
  CC50 at 144 h: > 100 µM
[3]
  IC50: 10.3 µM

## O=C(NC1CC2(C1)CN(c1nc3cc(Cl)ccc3o1)C2)C1CCS(=O)(=O)C1 (stereo not drawn) [Example 26, N-[2-(5-chloro-1,3-benzoxazol-2-yl)-2-azaspiro[3.3]heptan-6-yl]-1,1-dioxo-thiolane-3-carboxamide]
[1]
  IC50: 8.76 µM
[2]
  CC50 at 144 h: > 100 µM
[3]
  IC50: 4.65 µM
